Among the test systems are A549; CCRF-CEM; COLO 205; HL-60; HOP-62; IGROV-1; LXFL 529; MOLT-4; Malme-3M; NCI-H23; SF-295; SF-539; SK-MEL-5; SN12C; SNB-75; SW-620; HCT-116.
Common to all, as to assay: growth of human tumour cells (NCI), 48 h

Molecules are shown by their SMILES.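 Growth conditions: 96-well plates. Treatment: test compound, 48 hours, 5 concentrations. Analysis: linear interpolation between bracketing concentrations; unreached endpoints set to highest concentration. Abbreviation: GI50, concentration required for 50% inhibition of growth.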 Calls of active or inactive are those of the source. Rule as the data show it: active = GI50 up to about 1.1 µM and inactive = higher.

For the compound `CCOc1ccccc1NC(=O)C1=C(C)NC(C)=C(C(=O)Nc2ccccc2OCC)C1c1ccc(NC(C)=O)cc1`, the GI50 in the test with A549 was 46.6 µM (inactive); in the test with CCRF-CEM, 61.4 µM (inactive); with COLO 205, 16.7 µM (inactive); with HL-60, 31.6 µM (inactive); in the test on HOP-62, 9.66 µM (inactive); in the test on IGROV-1 it was 47.4 µM (inactive). Also, the GI50 in the test on LXFL 529 is 47.6 µM (inactive); in the test with MOLT-4 it was 32.1 µM (inactive); in the test with Malme-3M, 33.7 µM (inactive); with NCI-H23, 31 µM (inactive); in the test with SF-295, 13.2 µM (inactive); in the test with SF-539 it was 41.7 µM (inactive). For the same compound, the GI50 was 40.7 µM (inactive) in the test with SK-MEL-5, 30.2 µM (inactive) in the test on SN12C, 9.75 µM (inactive) with SNB-75 and 35.6 µM (inactive) in the test on SW-620.

In the case of `O=c1cc2n(c(=O)[nH]1)C1OC(C(O)C1O)[C@@H]2CCO` (some centres undefined), the GI50 in the test on A549, in the test on CCRF-CEM, with HL-60, with HOP-62, with IGROV-1 and with LXFL 529 was > 100 µM (inactive) throughout. The GI50 with MOLT-4, in the test on Malme-3M, in the test on NCI-H23, in the test on SF-295, with SF-539 and with SK-MEL-5 was > 100 µM (inactive) throughout. Besides, the GI50 in the test with SN12C and in the test on SW-620 was > 100 µM (inactive) in each case.

With `CCOC(=O)NC(=O)c1cn(CCN2CCN(C(=O)CCCCCCCCCCC(=O)N3CCN(CCn4cc(C(=O)NC(=O)OCC)c(=O)[nH]c4=O)CC3)CC2)c(=O)[nH]c1=O`, the GI50 with A549, with CCRF-CEM, with COLO 205, in the test with HCT-116, in the test with HOP-62 and in the test on IGROV-1 was > 100 µM (inactive) in each case. Moreover, the GI50 with LXFL 529 is > 100 µM (inactive); with MOLT-4 it was > 100 µM (inactive); in the test with Malme-3M it was > 100 µM (inactive); with NCI-H23 it was > 100 µM (inactive); with SF-295, 36.8 µM (inactive); in the test with SF-539, > 100 µM (inactive). In addition, the GI50 with SK-MEL-5, in the test with SN12C, in the test on SNB-75 and in the test on SW-620 was > 100 µM (inactive) in each case.

As for `Cc1ccc(S(=O)(=O)N/N=C/c2oc(-c3cccc([N+](=O)[O-])c3)c(-c3cccc([N+](=O)[O-])c3)c2[N+](=O)[O-])cc1`, the GI50 is > 100 µM (inactive) in the test on A549; 19.5 µM (inactive) with CCRF-CEM; > 100 µM (inactive) with COLO 205; 32.4 µM (inactive) in the test with HCT-116; 25.4 µM (inactive) in the test with HL-60; 29.9 µM (inactive) in the test with IGROV-1. The GI50 was 36.7 µM (inactive) in the test with LXFL 529; 25.8 µM (inactive) in the test on MOLT-4; > 100 µM (inactive) with Malme-3M; 42.4 µM (inactive) in the test on NCI-H23; 49.8 µM (inactive) with SF-295; > 100 µM (inactive) in the test on SF-539. Further, the GI50 in the test on SK-MEL-5 is 73.1 µM (inactive); with SN12C it was 61.4 µM (inactive); with SNB-75 it was 92.5 µM (inactive); in the test with SW-620 it was 37.8 µM (inactive).

Regarding `COC(=O)C1CC2(CC3=C1CCCC3)OCCO2` (centres undefined), the GI50 in the test with A549, in the test on CCRF-CEM, in the test on COLO 205, in the test on HCT-116, in the test with HL-60 and in the test on HOP-62 was > 100 µM (inactive) throughout. The GI50 in the test with IGROV-1, in the test with LXFL 529, in the test on Malme-3M, in the test with NCI-H23, in the test on SF-295 and in the test with SF-539 was > 100 µM (inactive) in each case. Besides, the GI50 in the test with SK-MEL-5, in the test on SN12C, in the test on SNB-75 and in the test on SW-620 was > 100 µM (inactive) each time.

`COc1cc(CC(=O)O)c([N+](=O)[O-])cc1OC`: the GI50 with A549, in the test on CCRF-CEM, with COLO 205, in the test on HCT-116, with HL-60 and with HOP-62 was > 100 µM (inactive) throughout. The GI50 in the test with IGROV-1, in the test on LXFL 529, in the test on MOLT-4, with Malme-3M, in the test on NCI-H23 and in the test with SF-295 was > 100 µM (inactive) throughout. Moreover, the GI50 with SF-539, with SN12C, with SNB-75 and with SW-620 was > 100 µM (inactive) each time.

As to `NC1c2ccccc2Nc2ccccc21`, the GI50 with A549 is 4.26 µM (inactive); in the test with CCRF-CEM, 5.2 µM (inactive); with COLO 205, 2.21 µM (inactive); in the test with HCT-116 it was 3.23 µM (inactive); in the test on HL-60, 4.3 µM (inactive); with HOP-62, 6.15 µM (inactive). Also, the GI50 in the test with IGROV-1 is 2.95 µM (inactive); in the test on LXFL 529 it was 4.94 µM (inactive); in the test on MOLT-4 it was 2.94 µM (inactive); in the test on Malme-3M it was 4.97 µM (inactive); with NCI-H23, 4.74 µM (inactive); in the test on SF-295 it was 4.49 µM (inactive). Besides, the GI50 in the test with SK-MEL-5 was 5.28 µM (inactive); with SN12C, 4.53 µM (inactive); in the test with SNB-75 it was 11.8 µM (inactive); in the test with SW-620 it was 3.66 µM (inactive).

On to `CC(O)C1OC(n2ccc(=O)[nH]c2=O)CC1n1cncn1` (centres undefined), for which the GI50 in the test with A549, with CCRF-CEM, with COLO 205, with HCT-116, in the test on HL-60 and in the test on HOP-62 was > 100 µM (inactive) each time. In addition, the GI50 in the test with IGROV-1, with LXFL 529, in the test with MOLT-4, in the test on Malme-3M, in the test with NCI-H23 and with SF-295 was > 100 µM (inactive) in each case. The GI50 in the test with SK-MEL-5, in the test on SN12C and in the test on SW-620 was > 100 µM (inactive) in each case.

Consider `CC1=N/C(=C\c2ccc([N+](=O)[O-])cc2)C(=O)O1`, for which the GI50 in the test on A549, in the test on COLO 205, in the test with HCT-116, with HL-60, with HOP-62 and in the test with IGROV-1 was > 100 µM (inactive) each time. Further, the GI50 in the test on LXFL 529, with MOLT-4, in the test with Malme-3M, in the test with NCI-H23, with SF-295 and in the test with SF-539 was > 100 µM (inactive) in each case. The GI50 in the test on SK-MEL-5, in the test on SN12C and with SW-620 was > 100 µM (inactive) each time.

Regarding `C[C@]12CC[C@H](O)CC1=CC[C@@H]1C2CC[C@]2(C)Nc3c(cnn3-c3ccccc3)CC12` (some centres undefined), the GI50 with A549 is 3.43 µM (inactive); with CCRF-CEM, 3.01 µM (inactive); with HCT-116, 3.01 µM (inactive); with HL-60, 1.77 µM (inactive); in the test with HOP-62 it was 2.81 µM (inactive); with IGROV-1, 7.05 µM (inactive). Also, the GI50 in the test on LXFL 529 was 4.06 µM (inactive); in the test with MOLT-4, 1.5 µM (inactive); with Malme-3M, 4.35 µM (inactive); in the test with NCI-H23, 3.88 µM (inactive); in the test with SF-295 it was 0.388 µM (active); with SF-539 it was 0.9 µM (active). Besides, the GI50 is 3.24 µM (inactive) in the test on SK-MEL-5, 1 µM (active) with SNB-75 and 2.6 µM (inactive) with SW-620.

As to `CCCc1c(C(=O)OCC)[nH]c(-c2ccc(-c3[nH]c(C(=O)OCC)c(CCC)c3C(=O)OCC)s2)c1C(=O)OCC`, the GI50 in the test on A549 is 52.4 µM (inactive); in the test with CCRF-CEM, > 100 µM (inactive); in the test with COLO 205, > 100 µM (inactive); in the test with HCT-116 it was 33.3 µM (inactive); with HL-60, 46 µM (inactive); with IGROV-1 it was 58.2 µM (inactive). The GI50 in the test with LXFL 529 is 33 µM (inactive); with MOLT-4, 65 µM (inactive); in the test with Malme-3M, 39.5 µM (inactive); with NCI-H23, 28.2 µM (inactive); in the test on SF-295, 27.9 µM (inactive); in the test with SF-539, 41 µM (inactive). The GI50 with SK-MEL-5 is 35.2 µM (inactive); in the test with SN12C, > 100 µM (inactive); in the test with SNB-75, 11.8 µM (inactive); in the test on SW-620, > 100 µM (inactive).

On to `On1c(-c2ccccc2)c(-c2c(-c3ccccc3)n(O)c3ccccc23)c2ccccc21`, for which the GI50 with A549 is 32.4 µM (inactive); with CCRF-CEM, 34.3 µM (inactive); with HCT-116 it was 48.5 µM (inactive); with HL-60, 32.7 µM (inactive); in the test on LXFL 529, 3.18 µM (inactive); in the test with MOLT-4, 37.7 µM (inactive). Also, the GI50 was 32.3 µM (inactive) in the test with Malme-3M; 27.3 µM (inactive) in the test on NCI-H23; 22.1 µM (inactive) in the test on SF-295; 24.8 µM (inactive) in the test with SF-539; 21.9 µM (inactive) in the test with SK-MEL-5; 46.3 µM (inactive) in the test on SN12C. The GI50 with SNB-75 is 27.5 µM (inactive).

As to `O[C@]12c3ccccc3C1CCCCC2N1CCOCC1` (some centres undefined), the GI50 in the test on A549, in the test on CCRF-CEM, in the test on COLO 205, with HCT-116, in the test with HL-60 and in the test with HOP-62 was > 100 µM (inactive) each time. For the same compound, the GI50 in the test on LXFL 529 is > 100 µM (inactive); in the test on MOLT-4, > 10 µM (inactive); in the test with Malme-3M, > 100 µM (inactive); with NCI-H23, > 100 µM (inactive); with SF-295 it was > 100 µM (inactive); in the test on SK-MEL-5 it was > 100 µM (inactive). In addition, the GI50 in the test with SN12C, in the test with SNB-75 and with SW-620 was > 100 µM (inactive) throughout.

Values taken from ChEMBL document CHEMBL1201862, “PubChem BioAssay data set” (2004).
